Holding throughout (assay): relative viability (nuclei count vs DMSO), 5 days (fraction); higher = more cells survive
Compound in the test “BI-2536 + Vorinostat”: CC[C@@H]1C(=O)N(C)c2cnc(Nc3ccc(C(=O)NC4CCN(C)CC4)cc3OC)nc2N1C1CCCC1 [BI-2536] + O=C(CCCCCCC(=O)Nc1ccccc1)NO [Vorinostat] (partner 1 µM)
The gist of the method:
(§1)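 Cells from lung cancer lines were seeded into 1536-well plates and, one day later, dosed by pin tool. Treatments were either a single drug or a fixed dose of an anchor drug with five library-drug doses (not always all listed) in √10 steps. After 5 days, nuclei were stained in a one-step fixation (final 0.05% Triton X-100, 1% formaldehyde, 1 ug/ml Hoechst) and counted on 4× images, and relative viability is the treated-to-vehicle nuclei ratio, as the median of duplicate plates.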

Compound in test [1]: CC1CC(=O)N(C2=CN=C(N=C2N1C3CCCC3)NC4=C(C=C(C=C4)C(=O)NC5CCN(CC5)C)OC)C [NPK76-II-72-1] + CC(=O)Nc1cccc(-n2c(=O)n(C3CC3)c(=O)c3c(Nc4ccc(I)cc4F)n(C)c(=O)c(C)c32)c1 [Trametinib] (partner 0.02 µM)
The gist of the method: as §1

Compound in test [2]: CC1CC(=O)N(C2=CN=C(N=C2N1C3CCCC3)NC4=C(C=C(C=C4)C(=O)NC5CCN(CC5)C)OC)C [NPK76-II-72-1] + Cc1nc(NC(=O)N2CCC[C@H]2C(N)=O)sc1-c1ccnc(C(C)(C)C(F)(F)F)c1 [Alpelisib] (partner 2 µM)
The method, boiled down:
as §1

Compound in test [3]: CC1CC(=O)N(C2=CN=C(N=C2N1C3CCCC3)NC4=C(C=C(C=C4)C(=O)NC5CCN(CC5)C)OC)C [NPK76-II-72-1] + N=C(N)NC(=N)NCCc1ccccc1 [Phenformin] (partner 250 µM)
The gist of the method: as §1

Turning to HCC-366, the relative viability with BI-2536 + Vorinostat (first compound 0.01 µM) worked out at 0.336; in the test with BI-2536 + Vorinostat (first compound 0.03162 µM), 0.347; in the test with BI-2536 + Vorinostat (first compound 0.1 µM), 0.0476; with BI-2536 + Vorinostat (first compound 0.3162 µM) it was 0.0183; in the test with BI-2536 + Vorinostat (first compound 1 µM) it was 0.0214; in test [1] (first compound 0.01 µM), 0.336. In addition, the relative viability in test [1] (first compound 0.03162 µM) was 0.403; in test [1] (first compound 0.1 µM), 0.372; in test [1] (first compound 0.3162 µM) it was 0.308; in test [1] (first compound 1 µM), 0.424; in test [2] (first compound 0.01 µM), 0.401; in test [2] (first compound 0.03162 µM) it was 0.443. Also, the relative viability in test [2] (first compound 0.1 µM) turned out to be 0.456; in test [2] (first compound 0.3162 µM), 0.435; in test [2] (first compound 1 µM) it was 0.452; in test [3] (first compound 0.01 µM), 0.593; in test [3] (first compound 0.03162 µM) it was 0.669; in test [3] (first compound 0.1 µM), 0.65. The figures for the relative viability in test [3] (first compound 0.3162 µM) and in test [3] (first compound 1 µM) were 0.559 and 0.607, respectively.
For HCC-827, the relative viability in the test with BI-2536 + Vorinostat (first compound 0.01 µM) worked out at 0.884; with BI-2536 + Vorinostat (first compound 0.03162 µM), 0.943; with BI-2536 + Vorinostat (first compound 0.1 µM) it was 0.665; with BI-2536 + Vorinostat (first compound 0.3162 µM) it was 0.222; with BI-2536 + Vorinostat (first compound 1 µM), 0.227; in test [1] (first compound 0.01 µM) it was 0.557. The relative viability stood at 0.491 in test [1] (first compound 0.03162 µM); 0.556 in test [1] (first compound 0.1 µM); 0.633 in test [1] (first compound 0.3162 µM); 0.565 in test [1] (first compound 1 µM); 0.942 in test [2] (first compound 0.01 µM); 0.931 in test [2] (first compound 0.03162 µM). The relative viability in test [2] (first compound 0.1 µM) was found to be 0.988; in test [2] (first compound 0.3162 µM) it was 1.02; in test [2] (first compound 1 µM), 1.09; in test [3] (first compound 0.01 µM), 0.407; in test [3] (first compound 0.03162 µM), 0.448; in test [3] (first compound 0.1 µM), 0.407. For the same cell line, the relative viability in test [3] (first compound 0.3162 µM) stood at 0.409; in test [3] (first compound 1 µM), 0.404.
As for HOP-62, the relative viability with BI-2536 + Vorinostat (first compound 0.01 µM) worked out at 0.528; with BI-2536 + Vorinostat (first compound 0.03162 µM), 0.74; with BI-2536 + Vorinostat (first compound 0.1 µM), 0.188; with BI-2536 + Vorinostat (first compound 0.3162 µM) it was 0.104; with BI-2536 + Vorinostat (first compound 1 µM) it was 0.13; in test [1] (first compound 0.01 µM), 0.384. The relative viability worked out at 0.415 in test [1] (first compound 0.03162 µM); 0.337 in test [1] (first compound 0.1 µM); 0.428 in test [1] (first compound 0.3162 µM); 0.37 in test [1] (first compound 1 µM); 1.08 in test [2] (first compound 0.01 µM); 0.999 in test [2] (first compound 0.03162 µM). Besides, the relative viability turned out to be 0.871 in test [2] (first compound 0.1 µM); 1.1 in test [2] (first compound 0.3162 µM); 1.12 in test [2] (first compound 1 µM); 0.622 in test [3] (first compound 0.01 µM); 0.648 in test [3] (first compound 0.03162 µM); 0.615 in test [3] (first compound 0.1 µM). Besides, the relative viability in test [3] (first compound 0.3162 µM) was found to be 0.637; in test [3] (first compound 1 µM) it was 0.683.
Take IA-LM: the relative viability with BI-2536 + Vorinostat (first compound 0.01 µM) came out at 1.07; in the test with BI-2536 + Vorinostat (first compound 0.03162 µM), 1.26; in the test with BI-2536 + Vorinostat (first compound 0.1 µM), 0.692; with BI-2536 + Vorinostat (first compound 0.3162 µM) it was 0.0844; with BI-2536 + Vorinostat (first compound 1 µM), 0.0605; in test [2] (first compound 0.01 µM), 0.895. The relative viability amounted to 0.851 in test [2] (first compound 0.03162 µM), 0.657 in test [2] (first compound 0.1 µM), 0.612 in test [2] (first compound 0.3162 µM) and 0.705 in test [2] (first compound 1 µM).
Turning to LC-2-ad, the relative viability with BI-2536 + Vorinostat (first compound 0.01 µM) worked out at 0.63; in the test with BI-2536 + Vorinostat (first compound 0.03162 µM), 0.274; with BI-2536 + Vorinostat (first compound 0.1 µM), 0.181; in the test with BI-2536 + Vorinostat (first compound 0.3162 µM), 0.198; with BI-2536 + Vorinostat (first compound 1 µM), 0.221; in test [1] (first compound 0.01 µM), 0.826. Further, the relative viability came out at 0.934 in test [1] (first compound 0.03162 µM); 0.983 in test [1] (first compound 0.1 µM); 0.92 in test [1] (first compound 0.3162 µM); 0.945 in test [1] (first compound 1 µM); 0.845 in test [2] (first compound 0.01 µM); 0.921 in test [2] (first compound 0.03162 µM). Moreover, the relative viability in test [2] (first compound 0.1 µM) amounted to 0.838; in test [2] (first compound 0.3162 µM), 0.936; in test [2] (first compound 1 µM) it was 1; in test [3] (first compound 0.01 µM), 0.531; in test [3] (first compound 0.03162 µM) it was 0.607; in test [3] (first compound 0.1 µM) it was 0.558. Further, the results for the relative viability in test [3] (first compound 0.3162 µM) and in test [3] (first compound 1 µM) were 0.494 and 0.665, respectively.
Take LCLC-97TM1: the relative viability with BI-2536 + Vorinostat (first compound 0.01 µM) was determined as 0.721; with BI-2536 + Vorinostat (first compound 0.03162 µM), 0.787; in the test with BI-2536 + Vorinostat (first compound 0.1 µM) it was 0.0652; in the test with BI-2536 + Vorinostat (first compound 0.3162 µM), 0.078; in the test with BI-2536 + Vorinostat (first compound 1 µM), 0.0571; in test [1] (first compound 0.01 µM), 0.203. Moreover, the relative viability in test [1] (first compound 0.03162 µM) is 0.208; in test [1] (first compound 0.1 µM), 0.181; in test [1] (first compound 0.3162 µM), 0.215; in test [1] (first compound 1 µM) it was 0.209; in test [2] (first compound 0.03162 µM), 0.24; in test [2] (first compound 0.1 µM), 0.18. Besides, the relative viability was 0.235 in test [2] (first compound 0.3162 µM); 0.257 in test [2] (first compound 1 µM); 0.401 in test [3] (first compound 0.01 µM); 0.464 in test [3] (first compound 0.03162 µM); 0.388 in test [3] (first compound 0.1 µM); 0.398 in test [3] (first compound 0.3162 µM). Moreover, the relative viability in test [3] (first compound 1 µM) stood at 0.416.
For LCLC-103H, the relative viability in the test with BI-2536 + Vorinostat (first compound 0.01 µM) amounted to 0.767; with BI-2536 + Vorinostat (first compound 0.03162 µM), 0.776; in the test with BI-2536 + Vorinostat (first compound 0.1 µM) it was 0.265; with BI-2536 + Vorinostat (first compound 0.3162 µM) it was 0.168; with BI-2536 + Vorinostat (first compound 1 µM) it was 0.239; in test [1] (first compound 0.03162 µM), 0.673. In addition, the relative viability in test [1] (first compound 0.1 µM) came to 0.556; in test [1] (first compound 0.3162 µM), 0.709; in test [1] (first compound 1 µM), 0.693; in test [2] (first compound 0.01 µM) it was 0.929; in test [2] (first compound 0.03162 µM), 0.928; in test [2] (first compound 0.1 µM), 1.07. The relative viability was found to be 0.925 in test [2] (first compound 0.3162 µM); 0.993 in test [2] (first compound 1 µM); 0.273 in test [3] (first compound 0.01 µM); 0.363 in test [3] (first compound 0.03162 µM); 0.342 in test [3] (first compound 0.1 µM); 0.329 in test [3] (first compound 0.3162 µM). In addition, the relative viability in test [3] (first compound 1 µM) was found to be 0.342.
Consider LK-2, for which the relative viability with BI-2536 + Vorinostat (first compound 0.01 µM) turned out to be 0.181; with BI-2536 + Vorinostat (first compound 0.03162 µM), 0.242; with BI-2536 + Vorinostat (first compound 0.1 µM), 0.15; with BI-2536 + Vorinostat (first compound 0.3162 µM), 0.104; with BI-2536 + Vorinostat (first compound 1 µM), 0.155; in test [1] (first compound 0.01 µM), 0.767. For the same cell line, the relative viability in test [1] (first compound 0.03162 µM) turned out to be 0.65; in test [1] (first compound 0.1 µM) it was 0.584; in test [1] (first compound 0.3162 µM), 0.609; in test [1] (first compound 1 µM), 0.69; in test [2] (first compound 0.01 µM), 1; in test [2] (first compound 0.03162 µM), 1.23. Also, the relative viability in test [2] (first compound 0.1 µM) came to 1.12; in test [2] (first compound 1 µM), 0.652; in test [3] (first compound 0.01 µM) it was 0.379; in test [3] (first compound 0.03162 µM), 0.583; in test [3] (first compound 0.1 µM), 0.504; in test [3] (first compound 0.3162 µM), 0.206. The relative viability in test [3] (first compound 1 µM) was found to be 0.561.
